One experiment relates to senescent A549 cells. The experiment in a line: Senescence assay: viability of senescent A549 cells (CellTiter-Glo or XTT). Type of experiment: cell-based. Particulars: chemotherapy-induced senescent A549 cells, compounds incubated 24-72 hours, viability relative to untreated control, read-out: A549_SEN IC50 (Absolute IC50 average). As for the experimental part: (§1) Cells were maintained in DMEM media (high glucose, 4 mM L-glutamine, no sodium pyruvate) supplemented with 10% fetal bovine serum in a humidified incubator at 37° C. with 5% carbon dioxide. Senescence was induced via treatment with a sublethal concentration of chemotherapy (bleomycin, gemcitabine, doxorubicin, 5-fluorouridine, mitomycin C), followed by a rest period without chemotherapy similarly to what is reported by others in the field (e.g., Aoshiba et al., 2003 Eur Respir J 22:436-443). Senescence was qualified by low EdU (5-ethynyl-2′-deoxyuridine) incorporation and high SA-β-Gal (senescence-associated beta-galactosidase) staining compared to proliferating untreated cells. Senescent cells were plated into 96-well plates at a density of 5-15,000 cells/well. The next day, compounds were added in duplicate across ten different concentrations spanning roughly four Log 10 units. Cells were incubated with the compounds for 24-72 hours, at which point viability was quantified using CellTiter-Glo (Promega) or XTT (R&D Systems). The viability for treated cells was determined relative to untreated control cells. The log of the compound concentration vs. normalized mean viability was fit to a four parameters Hill function with variable slope. The bottom was constrained to be greater than zero. The X mean value for Y=50 was interpolated to determine the absolute IC50. The results in Table 1 indicate that many of the compounds are active in cells and can induce a dose dependent decrease in the viability of senescent A549 and IMR90 cells.
On the technique in general: ATP-based viability assays read luminescence as a measure of living cells.

A further experiment relates to senescent IMR90 cells. In words: Senescence assay: viability of senescent IMR90 cells (CellTiter-Glo or XTT). Type of experiment: cell-based. Particulars: Homo sapiens, IMR-90; chemotherapy-induced senescent IMR90 cells; compounds incubated 24-72 hours; viability relative to untreated control; read-out: IMR90_SEN IC50 (Absolute IC50 average). As for the experimental part:
as §1

Like-named read-outs stand apart in the source and are kept apart here.

In general, IC50 refers to the concentration needed to halve the response being measured. `Cc1cc(C(=O)c2ccc(-c3cnn(CC45CC6(C)CC(C)(C4)CC(OCCO)(C6)C5)c3C)c(C(=O)O)n2)nnc1Nc1nc2ccccc2s1` [Compound 1, 6-(6-(benzo[d]thiazol-2-ylamino)-5-methylpyridazine-3-carbonyl)-3-(1-(((1r,3s,5R,7S)-3-(2-hydroxyethoxy)-5,7-dimethyladamantan-1-yl)methyl)-5-methyl-1H-pyrazol-4-yl)picolinic acid]: the IC50 fell in the range of 1 to 10 µM in the experiment with senescent A549 cells (Homo sapiens) and 0.1 to 1 µM in the experiment with senescent IMR90 cells.
In the same order, the values of `Cc1cc(C(=O)c2ccc(-c3cnn(CC45CC6(C)CC(C)(C4)CC(OCCN4CCOCC4)(C6)C5)c3C)c(C(=O)O)n2)nnc1Nc1nc2ccccc2s1` [Compound 2, 6-(6-(benzo[d]thiazol-2-ylamino)-5-methylpyridazine-3-carbonyl)-3-(1-(((1r,3R,5S,7s)-3,5-dimethyl-7-(2-morpholinoethoxy)adamantan-1-yl)methyl)-5-methyl-1H-pyrazol-4-yl)picolinic acid] are 0.01 to 0.1 µM and 0.01 to 0.1 µM.
Regarding `Cc1cc(C(=O)c2nc(C(=O)O)c(CCCOc3ccc(C#CCN(C)C)cc3F)s2)nnc1Nc1nc2ccccc2s1` [Compound 3, 2-(6-(benzo[d]thiazol-2-ylamino)-5-methylpyridazine-3-carbonyl)-5-(3-(4-(3-(dimethylamino)prop-1-yn-1-yl)-2-fluorophenoxy)propyl) thiazole-4-carboxylic acid], the IC50 fell in the range of 0.1 to 1 µM in the experiment with senescent A549 cells (Homo sapiens) and 1 to 10 µM with senescent IMR90 cells.
Regarding `Cc1cc(C(=O)c2ccc(-c3cnn(CC45CC6(OCCN7CCOCC7)C[C@](C)(C4)C[C@](C)(C5)C6)c3C)c(C(=O)NS(=O)(=O)CCCCCC(=O)N[C@H](C(=O)N3C[C@H](O)C[C@H]3C(=O)N[C@@H](C)c3ccc(-c4scnc4C)cc3)C(C)(C)C)n2)nnc1Nc1nc2ccccc2s1` [Compound 4, (2S,4R)-1-[(2S)-2-[6-({6-[6-(1,3-benzothiazol-2-ylamino)-5-methylpyridazine-3-carbonyl]-3-(1-{[(1S,3R,5S,7R)-3,5-dimethyl-7-[2-(morpholin-4-yl)ethoxy]adamantan-1-yl]methyl}-5-methylpyrazol-4-yl)pyridin-2-yl}formamidosulfonyl)hexanamido]-3,3-dimethylbutanoyl]-4-hydroxy-N-[(1S)-1-[4-(4-methyl-1,3-thiazol-5-yl)phenyl]ethyl]pyrrolidine-2-carboxamide], in the experiment with senescent A549 cells, the IC50 was in the range of 0.1 to 1 µM.
On to `Cc1cc(C(=O)c2ccc(-c3cnn(CC45CC6(OCCN7CCOCC7)C[C@](C)(C4)C[C@](C)(C5)C6)c3C)c(C(=O)NS(=O)(=O)CCCCCC(=O)N[C@H](C(=O)N3C[C@@H](O)C[C@H]3C(=O)N[C@@H](C)c3ccc(-c4scnc4C)cc3)C(C)(C)C)n2)nnc1Nc1nc2ccccc2s1` [Compound 5, (2S,4S)-1-[(2S)-2-[6-({6-[6-(1,3-benzothiazol-2-ylamino)-5-methylpyridazine-3-carbonyl]-3-(1-{[(1S,3R,5S,7R)-3,5-dimethyl-7-[2-(morpholin-4-yl)ethoxy]adamantan-1-yl]methyl}-5-methylpyrazol-4-yl)pyridin-2-yl}formamidosulfonyl)hexanamido]-3,3-dimethylbutanoyl]-4-hydroxy-N-[(1S)-1-[4-(4-methyl-1,3-thiazol-5-yl)phenyl]ethyl]pyrrolidine-2-carboxamide], for which the IC50 with senescent A549 cells was in the range of 0.1 to 1 µM.
With `C#Cc1ccc(CNC(=O)[C@@H]2C[C@H](O)CN2C(=O)[C@@H](NC(=O)CCCCCS(=O)(=O)NC(=O)c2nc(C(=O)c3cc(C)c(Nc4nc5ccccc5s4)nn3)ccc2-c2cnn(CC34CC5(C)CC(C)(C3)CC(OCCN3CCOCC3)(C5)C4)c2C)C(C)(C)C)cc1` [Compound 6, (2S,4R)-1-[(2S)-2-[6-({6-[6-(1,3-benzothiazol-2-ylamino)-5-methylpyridazine-3-carbonyl]-3-(1-{[(1S,3R,5S,7R)-3,5-dimethyl-7-[2-(morpholin-4-yl)ethoxy]adamantan-1-yl]methyl}-5-methylpyrazol-4-yl)pyridin-2-yl}formamidosulfonyl)hexanamido]-3,3-dimethylbutanoyl]-N-[(4-ethynylphenyl)methyl]-4-hydroxypyrrolidine-2-carboxamide], in the experiment with senescent A549 cells (Homo sapiens), the IC50 lay in the range of 0.01 to 0.1 µM.
In the case of `Cc1cc(C(=O)c2ccc(-c3cnn(CC45CC6(C)CC(C)(C4)CC(OCCN4CCOCC4)(C6)C5)c3C)c(C(=O)NS(=O)(=O)c3ccc(N4CC(C(=O)N[C@H](C(=O)N5C[C@H](O)C[C@H]5C(=O)N[C@H](C)c5ccc(-c6scnc6C)cc5)C(C)(C)C)C4)cc3)n2)nnc1Nc1nc2ccccc2s1` [Compound 7, 6-[6-(1,3-benzothiazol-2-ylamino)-5-methylpyridazine-3-carbonyl]-3-(1-{[(1S,3R,5S,7R)-3,5-dimethyl-7-[2-(morpholin-4-yl)ethoxy]adamantan-1-yl]methyl}-5-methylpyrazol-4-yl)-N-[4-(3-{[(2S)-1-[(2S,4R)-4-hydroxy-2-{[(1S)-1-[4-(4-methyl-1,3-thiazol-5-yl)phenyl]ethyl]carbamoyl}pyrrolidin-1-yl]-3,3-dimethyl-1-oxobutan-2-yl]carbamoyl}azetidin-1-yl)benzenesulfonyl]pyridine-2-carboxamide], in the experiment with senescent A549 cells (Homo sapiens), the IC50 is 0.1 to 1 µM.

For the origin of these results see patent US20250171435A1, “Carbon Linked BCL Inhibitors and Senolytic Compounds and Uses Thereof” (Rubedo Life Sciences, Inc., priority 2023, published 2025).
